Data reported in patent publication US9657260B2, “Method and system for continous monitoring of toxicity” (Yissum Research Development Company of The Hebrew …, priority 2014, dated 2017).
Several values for one entry are separate records, joined by “and”; a condition that tells them apart may be missing. Equal values may be shown once. Entries after “also recorded” stand apart in the source; their conditions may differ.

Columns and labels:
HepG2/C3A cells [1] = experiment: in vitro; details: for time to onset of mitochondrial (respiratory) damage: human; for % of normal respiration: within 60 minutes (fast phase)
Protocol: (§1) Reactor Seeding. The following steps of cell seeding and reactor assembly were carried out in a sterile hood. Prior to seeding cells into the reactor, the PDMS-based well unit and all tubings were cleaned and sterilized with 70% EtOH, washed with ddH2O, dried and subsequently exposed to UV light for at least 30 min. The cells were detached from the tissue culture substrate with trypsin-EDTA (Biochrom, Berlin, Germany), counted, centrifuged at 280 rpm for 5 min at 4° C. and resuspended with 100 μl of collagen type I solution to a final density of 4×10^6 cells per device. During resuspension of the cells, 300 μg to 500 μg oxygen sensing beads (CPOx-50-RuP, Colibri Photonics, Potsdam, Germany) were added, resulting in at least ten to 20 beads per microwell after completion of the cell seeding protocol. The collagen type I solution was made of 560 μl ddH2O, 100 μl PBS (10×), 6.25 μl of 1 N NaOH and 333 μl of collagen type I (3.6 mg ml^−1, BD Biosciences, San Jose, Calif., USA). The PDMS microwells were primed for 5 min on ice with this solution in order to eliminate air bubbles from the wells. Subsequently, 100 μl of collagen type I suspension containing cells and oxygen-sensing beads was placed on top of the PDMS-based well unit, thus covering all nine microwells. The unit was kept in a sterile 50.8 mm petri dish placed on ice for 5 min in order to allow the cells to sediment into the wells. The low temperature prevented premature collagen polymerization and the induction of cellular stress response pathways. Afterwards, excess cell and microbead suspension was gently but thoroughly wiped off the PDMS-based well unit using a sterile glass coverslip (FIG. 2C) leading to a concentration of 100,000 cells/well. The inoculated well unit was then incubated for 5 min at 37° C. in a humidified cell incubator (see above) at 5% CO2 in order to polymerize the collagen and by this immobilize the cells and microbeads in the wells. Following polymerization, the well unit, loaded with the cells, was immersed in 5 ml of MEM medium (composition see above) for 20 min at 37° C. in a cell incubator (see above). Subsequently, the PDMS-based well unit was transferred into the bioreactor. After sealing, the bioreactor was placed into the climate control chamber (37° C., ACUO2, Evotec, Germany) of an inverted fluorescence microscope (IX81, Olympus, Japan) and perfused with MEM (composition see above) supplemented with 10 mM HEPES with a flow rate of 10 μl min^−1 using a syringe pump (Harvard Apparatus, USA). The automated and motorized microscope stage was equipped with a holder for three microreactors, allowing for performing three experiments simultaneously.
(§2) Chemical compound injection. […] Succinate as the substrate for complex II was used as an electron donor for the putatively toxicologically affected complex I in the mitochondrial electron transfer system (ETS), whereas TMPD was used to donate electrons to cytochrome c in order to test for a putative toxicological effect on complex III in the ETS. Ascorbate was used to maintain TMPD in a reduced state. The cytotoxic effects were evaluated by real-time monitoring of the change in oxygen consumption and for subsequent confirmation of the toxicological endpoints also by specific conventional staining assays (see below).
(§3) Oxygen measurement. Real-time oxygen measurements were performed optically by means of phosphorescence quenching. Biocompatible polystyrene microbeads with a diameter of 50 μm equipped with a ruthenium-phenanthroline-based phosphorescence dye (CPOx-50-RuP, Colibri Photonics, Potsdam, Germany) were used as microprobes and were coimmobilized with the cells (FIG. 1D) in the collagen matrix during reactor seeding (described above). The electronic measurement system (OPAL, Colibri Photonics, Germany) comprises a control module, an LED as the excitation source and a detector unit (FIG. 1A).

HepG2/C3A cells [2] = experiment: HCS LipidTOX staining for steatosis and phospholipidosis; format: cell-based, human; details: 24 hr exposure to amiodarone (200 pM as printed elsewhere in the source)
Protocol: Steatosis and phospholipidosis were evaluated using the HCS LipidTOX™ system (Life Technologies, USA) according to manufacturer directions. Briefly, cells were incubated with green neutral lipid and red phospholipidosis dyes and counterstained with 1 μg/mL Hoechst 33342 for 30 min, and washed with PBS. LipidTOX green and red staining intensity were normalized to number of Hoechst-labeled nuclei.

HepG2/C3A spheroids = format: cell-based, human
Protocol: Quantitative Real Time Polymerase Chain Reaction (qRT-PCR). RNA was isolated and purified utilizing Macherey-Nagel NucleoSpin RNA II kit according to manufacturer instructions. RNA concentration and purity was determined using NanoDrop ND-1000 spectrophotometer (Thermo Fisher Scientific, USA). cDNA was synthesized from 1 μg RNA sample using qScript cDNA SuperMix (Quanta BioSciences, USA) according to the manufacturer protocol. Gene expression analysis was carried out utilizing KAPA SYBR FAST Universal 2X qPCR Master Mix (Kapa Biosystems, Boston, USA) on BioRad CFX96 Real-Time System (New South Wales, Australia), according to the manufacturer protocol. Gene transcription was evaluated using the ΔΔCt method normalized to 60S ribosomal protein L32 (RPL32) or ubiquitin C (UBC).

HeLa cells = experiment: Real-time oxygen uptake of HeLa cells in the bioreactor; format: cell-based, human; details: for effect of ascorbate and TMPD on the loss of oxygen uptake: 10 μM, preincubation with 2 mM ascorbate and 0.5 mM TMPD
Text: Chemical compound injection.
Oxygen measurement. […] Thus, the camera port was kept available for imaging.

HepG2/C3A cells [3] = experiment: Electrochemical glucose and lactate sensing at the bioreactor outflow; format: cell-based, human; details: 50 μM; for lactate over glucose ratio reached after exposure: before exposure 1.3 (rotenone), 1.2 (Troglitazone)
Protocol: Cells respond to mitochondrial dysfunction by adapting their metabolic response to circumvent oxidative phosphorylation. To track this response electrochemical sensors for glucose and lactate were attached to bioreactor outflow in a PMMA housing with 16 μl dead volume (FIG. 5 A-C). Samples were collected sequentially using a computer controlled microfluidic switchboard (FIG. 5D). Micromechanical valves (FIG. 5E) introduced a sequence of (1) washing buffer, (2) air bubble interface, and (3) a bioreactor sample every hour. Proof of principle was shown with 50 μM rotenone, a direct mitochondrial C1 inhibitor, causing an 80% loss in respiration (FIG. 5F). […] Importantly, the system is sensitive enough to detect minute signals and off target effects. […] Lactate over glucose ratio increases slightly from 1.2 to 1.8, showing a shift toward glycolysis (FIG. 5I).

in vitro = details: human
Protocol: as §1, §2, §3

[4] = HeLa cells, 12.5 mM acetaminophen

## CCCCc1oc2ccccc2c1C(=O)c1cc(I)c(OCCN(CC)CC)c(I)c1 [amiodarone]
HepG2/C3A cells [1]; 200 µM
  time to onset of mitochondrial (respiratory) damage: 15 h
HepG2/C3A cells [1]; 500 µM
  time to onset of mitochondrial (respiratory) damage: 6 h
HepG2/C3A cells [1]; 1000 µM
  time to onset of mitochondrial (respiratory) damage: 2 h
HepG2/C3A cells [2]
  increase in intracellular lipids (steatosis): 2.1 fold and 2 fold and > 2 fold
  increase in phospholipidosis: 2.4 fold and 2.5 fold and > 2 fold

## C[S+](C)[O-] [DMSO]
HepG2/C3A spheroids
  cell viability: little affect on cell viability
  increase in PXR expression: 8 fold
HepG2/C3A spheroids; 1%, 28 days
  increase in MRP3 expression: 10 fold

## Antimycin A
HeLa cells; HeLa
  effect of ascorbate and TMPD on the loss of oxygen uptake: abrogated
HeLa cells; HeLa, listed as antimycin A
  effect of ascorbate and TMPD on the loss of oxygen uptake: abrogated the toxic response

## Cc1c(C)c2c(c(C)c1O)CCC(C)(COc1ccc(CC3SC(=O)NC3=O)cc1)O2 (centres unmarked) [Troglitazone]
HepG2/C3A cells [3]
  lactate over glucose ratio reached after exposure: 1.8
In vitro
  CC50: 300 µM

## C=C(C)[C@H]1Cc2c(ccc3c2O[C@@H]2COc4cc(OC)c(OC)cc4[C@@H]2C3=O)O1 [rotenone]
HepG2/C3A cells [3]; after 6 hours, shift to glutaminolysis
  glucose uptake after 6 hours: loss of glucose uptake
HepG2/C3A cells [3]
  lactate over glucose ratio reached after exposure: 2.5
HepG2/C3A cells [1]; 50 μM
  loss in respiration: 80%

## CC(=O)Nc1ccc(O)cc1 [acetaminophen]
HeLa cells; [4]
  mitochondrial respiration immediately after exposure: identical rapid loss of mitochondrial respiration; also recorded: identical immediate loss of mitochondrial respiration
  second dose-independent phase of toxicity: failed to display the second dose-independent phase of toxicity; also recorded: absent in HeLa cells
  time at which the rapid loss of respiration ends: 60 min
HeLa cells; HeLa, 12.5 mM acetaminophen, 2 mM ascorbate and 0.5 mM TMPD
  effect of ascorbate and TMPD on the toxic response: eliminated the toxicity; also recorded: abrogated the toxic response
HeLa cells; HeLa, 12.5 mM acetaminophen, preincubation with 20 mM succinate
  effect of succinate on the toxic response: no effect on the toxicity; also recorded: did not affect HeLa response
HepG2/C3A cells [1]; 8 mM acetaminophen
  % of normal respiration: 70%
HepG2/C3A cells [1]; 12.5 mM acetaminophen
  % of normal respiration: 55%
HepG2/C3A cells [1]; 16 mM acetaminophen
  % of normal respiration: 25%
